Several values for one entry are separate records, joined by “and”; a condition that tells them apart may be missing. Identical values can stand only once. Inconclusive results are not listed.

This test has as its system MX-1 breast xenograft, nude mice, tumor weight T/C. As to the kind of experiment: NCI In Vivo Anticancer Drug Screen. Data for tumor model Human Mammary Carcinoma MX-1 Xenograft (intrarenal inoculation) in NU/NU Swiss (nude) mice. To be noted: endpoint: mean tumor weight change, higher = larger tumour. In short, it runs like this:
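Read-out: treated (T) over vehicle control (C) ratio of survival or tumor size. Dosing in animals carrying the transplanted tumor.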

[1] abbreviates: dose: 400.0 mg/kg/injection, schedule: Q04DX003 (sc), vehicle: saline with Tween-80.
Where [2] appears, read: dose: 100.0 mg/kg/injection, schedule: Q04DX003 (sc), vehicle: saline with Tween-80.
Setting [3] is: dose: 600.0 mg/kg/injection, schedule: Q04DX003 (sc), vehicle: saline with Tween-80.
The mark [4] stands for this setting: dose: 1200.0 mg/kg/injection, schedule: Q04DX003 (sc), vehicle: saline with Tween-80.

As for `COc1cccc2c1C(=O)c1c(O)c3c(c(O)c1C2=O)CC(O)(/C(C)=N/NC(=O)CCCCC(=O)N/N=C(\C)C1(O)Cc2c(O)c4c(c(O)c2C(OC2CC(N)C(O)C(C)O2)C1)C(=O)c1c(OC)cccc1C4=O)CC3OC1CC(N)C(O)C(C)O1` (stereo unspecified), the T/C is 62 % of control (dose: 50.0 mg/kg/injection, schedule: Q04DX003 (sc), vehicle: water) and 2 % of control (dose: 100.0 mg/kg/injection, schedule: Q04DX003 (sc), vehicle: water).

With `O=c1n(CC2CO2)c(=O)n(CC2CO2)n1CC1CO1` (stereo unspecified), the T/C by setting is: (dose: 9.38 mg/kg/injection, schedule: Q04DX003 (sc), vehicle: saline) 57 % of control; (dose: 18.7 mg/kg/injection, schedule: Q04DX003 (sc), vehicle: saline) 4 % of control; (dose: 18.75 mg/kg/injection, schedule: Q04DX003 (sc), vehicle: saline) 2 % of control; (dose: 29.0 mg/kg/injection, schedule: Q04DX003 (sc), vehicle: saline) -11 % of control; (dose: 37.5 mg/kg/injection, schedule: Q04DX003 (sc), vehicle: saline) -83 % of control and -73 % of control.

With `CC12CCC3C(CCC4CC(OC(=O)Cc5ccc(N(CCCl)CCCl)cc5)CCC43C)C1CCC(=O)N2` (stereo unspecified), the T/C was 3 % of control (dose: 25.0 mg/kg/injection, schedule: Q04DX003 (sc), vehicle: saline with Tween-80) and -82 % of control under setting [1].

Regarding `CC[N+](CC)(CC)CC`, the T/C is, setting by setting: (dose: 1.5 mg/kg/injection, schedule: Q01DX010 (sc), vehicle: saline with Tween-80) 65 % of control; (dose: 3.0 mg/kg/injection, schedule: Q01DX010 (sc), vehicle: saline with Tween-80) 103 % of control.

Consider `COC(=O)Nc1nc2ccc(C3(c4ccc(F)cc4)OCCO3)cc2[nH]1`, for which the T/C was 100 % of control (dose: 50.0 mg/kg/injection, schedule: Q04DX003 (sc), vehicle: saline with Tween-80) and 79 % of control under setting [2].

With `O=c1nc(Oc2ccccc2)nc2ncccn12`, the T/C runs as follows: (dose: 25.0 mg/kg/injection, schedule: Q01DX010 (sc), vehicle: saline with Tween-80) 100 % of control; (dose: 50.0 mg/kg/injection, schedule: Q01DX010 (sc), vehicle: saline with Tween-80) 120 % of control; (dose: 100.0 mg/kg/injection, schedule: Q01DX010 (sc), vehicle: saline with Tween-80) 42 % of control; (dose: 200.0 mg/kg/injection, schedule: Q01DX010 (sc), vehicle: saline with Tween-80) 46 % of control.

`CC1CN=C(c2ccc(NC(=O)c3ccc(C(=O)Nc4ccc(C5=NCC(C)N5)cc4)cc3)cc2)N1` (stereo unspecified): the T/C (dose: 100.0 mg/kg/injection, schedule: Q01DX010 (sc), vehicle: Klucel (hydroxypropylcellulose) (HPC)) is 96 % of control; the T/C (dose: 200.0 mg/kg/injection, schedule: Q01DX010 (sc), vehicle: Klucel (hydroxypropylcellulose) (HPC)) is 107 % of control; the T/C (dose: 400.0 mg/kg/injection, schedule: Q01DX010 (sc), vehicle: Klucel (hydroxypropylcellulose) (HPC)) was 110 % of control; the T/C (dose: 800.0 mg/kg/injection, schedule: Q01DX010 (sc), vehicle: Klucel (hydroxypropylcellulose) (HPC)) was 77 % of control.

Consider `COC1CC(C)C(OC)C2=CC(=O)C=C(NC(=O)/C(C)=C/C=C\C(C)C(OC(N)=O)/C(C)=C\C(C)C1OC)C2=O` (stereo unspecified), for which the T/C reads like this: (dose: 12.5 mg/kg/injection, schedule: Q04DX003 (sc), vehicle: saline + alcohol) 81 % of control; (dose: 25.0 mg/kg/injection, schedule: Q04DX003 (sc), vehicle: saline + alcohol) 97 % of control.

`CC[N](CC)[Ge]([CH2]C)[CH2]C.CC[N](CC)[Ge]([CH2]C)[CH2]C`: the T/C (dose: 12.5 mg/kg/injection, schedule: Q01DX010 (sc), vehicle: saline) was 190 % of control; the T/C (dose: 25.0 mg/kg/injection, schedule: Q01DX010 (sc), vehicle: saline) is 106 % of control; the T/C (dose: 50.0 mg/kg/injection, schedule: Q01DX010 (sc), vehicle: saline) is 106 % of control.

Take `O=C(O)C1Cc2nc[nH]c2CN1CO` (stereo unspecified): the T/C runs as follows: under setting [2], 113 % of control; (dose: 200.0 mg/kg/injection, schedule: Q04DX003 (sc), vehicle: saline with Tween-80) 113 % of control; under setting [1], 80 % of control; (dose: 800.0 mg/kg/injection, schedule: Q04DX003 (sc), vehicle: saline with Tween-80) 99 % of control.

On to `COc1cccc2c1C(=O)c1c(O)c3c(c(O)c1C2=O)C[C@@](O)(/C(C)=N/NC(=O)c1ccccc1)C[C@@H]3OC1CC(N)C(O)C(C)O1` (stereo partly specified), for which the T/C was 73 % of control (dose: 18.75 mg/kg/injection, schedule: Q04DX003 (sc), vehicle: water) and 25 % of control (dose: 37.5 mg/kg/injection, schedule: Q04DX003 (sc), vehicle: water).

On to `COc1cccc2c1C(=O)c1c(O)c3c(c(O)c1C2=O)C[C@@](O)(C(C)=O)C[C@@H]3OC1CC(N)C(O)C(C)O1` (stereo partly specified), for which the T/C was 161 % of control (dose: 0.5 mg/kg/injection, schedule: Q01DX010 (sc), vehicle: saline); 78 % of control and 89 % of control (dose: 4.0 mg/kg/injection, schedule: Q01DX010 (sc), vehicle: saline).

`c1cc(NC2CCCCC2)ccc1CN1CCOCC1`: the T/C runs as follows: (dose: 50.0 mg/kg/injection, schedule: Q01DX010 (sc), vehicle: saline + Tween-80 + alcohol) 66 % of control; (dose: 100.0 mg/kg/injection, schedule: Q01DX010 (sc), vehicle: saline + Tween-80 + alcohol) 38 % of control; (dose: 200.0 mg/kg/injection, schedule: Q01DX010 (sc), vehicle: saline + Tween-80 + alcohol) 81 % of control; (dose: 400.0 mg/kg/injection, schedule: Q01DX010 (sc), vehicle: saline + Tween-80 + alcohol) 61 % of control.

For the compound `C/C(=N\NC(N)=O)c1cccc(/C(C)=N/NC(N)=O)n1`, the T/C was 98 % of control under setting [3] and 74 % of control under setting [4].

For `NC(=O)c1ncn(C2OC(CO)C(O)C2O)n1` (stereo unspecified), the T/C is, setting by setting: (dose: 225.0 mg/kg/injection, schedule: Q04DX003 (sc), vehicle: saline) 108 % of control; (dose: 450.0 mg/kg/injection, schedule: Q04DX003 (sc), vehicle: saline) 61 % of control; (dose: 900.0 mg/kg/injection, schedule: Q04DX003 (sc), vehicle: saline) 45 % of control.

Take `O=C1N[C@@H]([C@H]2CC[C@H](Cl)CN2)C(=O)N[C@H]1[C@H]1CC[C@H](Cl)CN1`: the T/C is, setting by setting: (dose: 0.62 mg/kg/injection, schedule: Q01DX010 (sc), vehicle: water) 110 % of control; (dose: 2.5 mg/kg/injection, schedule: Q01DX010 (sc), vehicle: water) 72 % of control and 73 % of control; (dose: 2.5 mg/kg/injection, schedule: Q04DX003 (sc), vehicle: water) 11 % of control; (dose: 5.0 mg/kg/injection, schedule: Q01DX010 (sc), vehicle: water) 30 % of control and 46 % of control; (dose: 5.0 mg/kg/injection, schedule: Q04DX003 (sc), vehicle: water) -62 % of control; (dose: 10.0 mg/kg/injection, schedule: Q04DX003 (sc), vehicle: water) -100 % of control. Moreover, under “dose: 20.0 mg/kg/injection, schedule: Q04DX003 (sc), vehicle: water”, the T/C was -100 % of control.

With `O=C1c2ccccc2C(=O)c2c(NCCNCCO)ccc(NCCNCCO)c21`, the T/C was 59 % of control (dose: 4.0 mg/kg/injection, schedule: Q01DX010 (ip), vehicle: water); 80 % of control (dose: 8.0 mg/kg/injection, schedule: Q01DX010 (ip), vehicle: water); 45 % of control (dose: 13.33 mg/kg/injection, schedule: Q04DX003 (ip), vehicle: water); 65 % of control (dose: 13.33 mg/kg/injection, schedule: Q04DX003 (sc), vehicle: water); 61 % of control (dose: 16.0 mg/kg/injection, schedule: Q01DX010 (ip), vehicle: water); 13 % of control and 25 % of control (dose: 16.0 mg/kg/injection, schedule: Q01DX010 (sc), vehicle: water). The T/C is 32 % of control (dose: 26.65 mg/kg/injection, schedule: Q04DX003 (sc), vehicle: water); 20 % of control (dose: 32.0 mg/kg/injection, schedule: Q01DX010 (ip), vehicle: water); 31 % of control (dose: 53.3 mg/kg/injection, schedule: Q04DX003 (ip), vehicle: water); 31 % of control (dose: 53.3 mg/kg/injection, schedule: Q04DX003 (sc), vehicle: water).

Take `Cc1c2cc(Cl)c3ccccc3c2c[n+]2ccccc12`: the T/C runs as follows: (dose: 300.0 mg/kg/injection, schedule: Q04DX003 (sc), vehicle: saline with Tween-80) 82 % of control; under setting [3], 67 % of control; under setting [4], 44 % of control; (dose: 2400.0 mg/kg/injection, schedule: Q04DX003 (sc), vehicle: saline with Tween-80) 76 % of control.

On to `O=NN(CCCl)C(=O)NCCO`, for which the T/C is, setting by setting: (dose: 3.12 mg/kg/injection, schedule: Q04DX003 (sc), vehicle: water) 72 % of control and 208 % of control; (dose: 12.5 mg/kg/injection, schedule: Q04DX003 (sc), vehicle: water) 10 % of control.

For the origin of these results see PubChem BioAssay AID296 (DTP/NCI, 2004).
